# Measured values: patent publication US7598244B2, “[1,2,4]triazolo[1,5,a]pyrimidin-2-ylurea derivative and use thereof” (Nippon Kayaku Kabushiki Kaisha, priority 2003, dated 2009)
# Key:
# [1] = tested on: MHC class I molecules of T1 cells (human lymphoma cell line 174×CEM.); assay: Effect on expression of MHC class I from T1 cells (flow cytometry, MFI); type: cell-based; conditions: 3 days culture
# Outline: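 EC20 is the compound level that lowers MHC class I MFI by 20% relative to compound-free cultures. Read-out was flow cytometry after FITC W6/32 staining.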
# [2] = tested on: MHC class I molecules of human peripheral blood-derived dendritic cells; assay: Effect on expression of MHC class I molecules from human peripheral blood-derived dendritic cells; type: cell-based; conditions: dendritic cells matured with TNF-α, 3 days; read-out: EC50 (reduction of 50% of the number of cells wherein MHC class I molecules were highly expressed)
# Source text: Effect on Expression of MHC Class I Molecules from Human Peripheral Blood-Derived Dendritic Cells
# Monocytes were isolated from human peripheral blood by the specific gravity centrifugation method. Thereafter, using mouse anti-human CD14 antibody-binding microbeads and a magnetic cell separation system (Miltenyi Biotec), CD14 positive cells were separated from the peripheral blood monocytes. The separated CD14 positive cells were suspended in an RPMI 1640 medium containing 10% FBS, and the suspension was then inoculated in a 6-well plate, resulting in a concentration of 1.0×10^6 cells/well. It was cultured at 37° C. for 20 minutes in an incubator containing 5% carbon dioxide. […] Thereafter, RPMI 1640 containing a 500 U/ml human recombinant […] (hereinafter referred to as GM-CSF; Anapure Bioscientific), 50 ng/ml human recombinant interleukin 4 (hereinafter referred to as IL-4; Pepro Tech), and 10% FBS, was added to the remaining suspension at a concentration of 2 ml/well. The obtained mixture was then cultured at 37° C. in an incubator containing 5% carbon dioxide. When adhesive CD14 positive cells are cultured in the presence of GM-CSF and IL-4, the CD14 positive cells were differentiated into non-adhesive immature dendritic cells. After the cells had been cultured for 7 days, non-adhesive cells were recovered to obtain immature dendritic cells. Using a 6-well plate, the immature dendritic cells (2.5×10^5 cells/well) were cultured in RPMI 1640 containing a 100 U/ml human recombinant tumor necrosis factor-α (hereinafter referred to as TNF-a; Pepro Tech), a test compound, and 10% FBS, at 37° C. for 3 days in an incubator containing 5% carbon dioxide. The dendritic cells became mature as a result of the presence of TNF-α, but in the present test, a test compound was allowed to simultaneously act on the cells. The mature dendritic cells were then stained with fluoroisothiocyanate-labeled mouse anti-human MHC class I monoclonal antibody (an antibody generated from the cell line W6/32 (ATCC No. CRL 1991)). The rate of the number of cells wherein MHC class I molecules were highly expressed to the total number of cells was measured by flow cytometry. The reduction rate of the number of cells wherein MHC class I molecules were highly expressed was calculated using the following formula (2), and the concentrations of test compounds necessary for reduction of 50% (EC50 values) were obtained.
# [formula] • Eexp: (The number of cells, wherein MHC class I molecules are highly expressed, in cultured cells containing test compound)/(the total number of cells) • Cexp: (The number of cells, wherein MHC class I molecules are highly expressed, in cultured cells containing no test compounds)/(the total number of cells)
# [3] = tested on: human dendritic cells cultured with human allogenic T cells; assay: Effect on the ability of human dendritic cells to induce the growth of allogenic T cells ([3H]-thymidine incorporation); type: cell-based; conditions: Homo sapiens; dendritic cells treated 3 days with test compound and TNF-α, then 5 days with allogenic T cells; read-out: IC50 (inhibition of DNA synthesis of lymphocytes)
# Experimental: Effect on the Ability of Human Dendritic Cells to Induce the Growth of Allogenic T Cells
# Immature dendritic cells were cultured with a test compound and TNF-α for 3 days by the same method as that described in Test Example 2. The obtained dendritic cells (2.5×10^3 cells/50 μl/well) were cultured together with human allogenic T cells (2.0×10^5 cells/150 μl/well) in a 96-well flat bottom plate at 37° C. for 5 days in an incubator containing 5% carbon dioxide. Thereafter, [^3H]-thymidine (Amersham Pharmacia Biotech) was added thereto at an amount of 1 μCi/10 μl/well, 16 hours before completion of the culture. After completion of the culture, cells were captured on a glass filter using a cell harvester (Skatron Instrument) and then dried. Thereafter, Scintillator ACS-II (Amersham Pharmacia Biotech) was added thereto, and the radioactivity of [^3H]-thymidine incorporated into the cells were then measured using a liquid scintillation counter. The inhibition rate of the DNA synthesis of lymphocytes was calculated using the following formula (3). Thereafter, the concentration of a test compound necessary for inhibition of 50% (IC50 value) was obtained.
# [formula] • Eexp: The amount of [^3H]-thymidine incorporated into cultured cells containing test compound • Cexp: The amount of [^3H]-thymidine incorporated into cultured cells containing no test compounds
# BDF1 mice = assay: Effect on graft versus host (GVH) reaction, spleen weight measurement method; type: in vivo, mouse; conditions: subcutaneous, twice a day for 7 days
# Experimental: Effect on Graft Versus Host (GVH) Reaction
# The effect of the compound on the GVH reaction was determined in accordance with the spleen weight measurement method of Simonsen et al. (Simonsen et al., Annals of the New York Academy of Sciences, p. 73 (1978)). Splenic cells were prepared from C57BL/6 mice (Charles River Japan, Inc.; female; 10-week-old), and the cells (5.0×10^6 cells) were transferred into the abdominal cavity of each of BDF1 mice (Charles River Japan; […]). From the day of transferring of the above cells, the test compound having each diluted concentration or a 5% glucose solution used as a solvent was subcutaneously administered to the BDF1 mice twice a day for 7 consecutive days. Eight days after the transferring of the above cells, the spleen weight of each of the BDF1 mice was measured. The reduction rate of the spleen weight was calculated using the following formula (6). The amount of the test compound necessary for reduction of 50% (ED50 value) was obtained.
# [formula] • Eexp: Spleen weight of mouse to which test compound was administered • Cexp: Spleen weight of mouse to which solvent was administered
structure (smiles),measurement,setting,value
COc1ccc(-c2ccnc3nc(NC(=O)NCc4cccnc4)nn23)cc1 [Example 039],EC20 (concentration necessary for suppressing 20% of the expression level of MHC class I molecules),[1],300 nM
same,EC50,[2],540 nM
same,IC50,[3],1520 nM
same,Inhibition rate (%) (reduction rate of the spleen weight),BDF1 mice; 25 × 2 mg/kg/single administration,14.1%
same,Inhibition rate (%) (reduction rate of the spleen weight),BDF1 mice; 50 × 2 mg/kg/single administration,29.5%
